Series [1] has as its system Cx26. In words: Cx26 expression and localization (immunoblotting, immunocytochemistry) in rat hepatocytes. It counts as cell-based. To be noted: 1 μM TSA. As for the experimental part:
In all conditions, the hepatocytes were cultivated as a monolayer configuration, and samples were taken at days 1, 4 and 7 (D1, D4, D7) of the cultivation time.
Proteins (25 or 50 μg) were resolved on SDS-PAGE (7.5, 10 or 12%) and blotted afterwards onto nitrocellulose membranes. After blocking with non-fatty milk, membranes were incubated with appropriate concentrations of primary and secondary antibodies (HRP labeled). Proteins were detected using the ECL detection system (Amersham Biosciences). Primary antibodies: Cx26 (Zymed, 1/250), Cx32 (Sigma, 1/500), Cx43 (Zymed, 1/100).
Hepatocytes were fixed with cold ethanol, peremeabilised with Triton X-100 (Sigma) and blocked with non-fatty milk. Following incubation with appropriate concentrations of primary and secondary antibodies (FITC or TRITC labeled), samples were mounted with DAPI-containing Vectashield (Vector Laboratories). Detection was performed by fluorescence microscopy (Leica DMR/XA).
(Immunoblotting shows a protein as a band on a membrane.)

Series [2] concerns Pak1. In words: Western blotting of Pak1 in primary rat hepatocytes. The series is classed as cell-based. To be noted: 50 μM, sustained treatment, EGF-stimulated. From the text: Male outbred Sprague-Dawley rats (200-300 g, Iffa Credo, Brussels, Belgium) were kept under controlled environmental conditions (12-hr light-dark cycle) and fed a standard diet (Animafabo A04, water ad libitum). Hepatocytes were isolated by a two-step collagenase perfusion as described (De Smet et al. In ‘Methods in Molecular Biology, Vol. 107: Cytochrome P450 Protocols’, Philips I R and Shephard E A, eds., pp 295-301, Humana Press, Totowa, 1998). Cell liability was >90% as determined by trypan blue exclusion. Cells (0.4×10^5 cells/cm^2) were plated in MEM/M199 (3:1), containing BSA (1 mg/ml), bovine insulin (10 μg/ml), L-glutamine (2 mM), FBS (10% v/v) and antibiotics (7.3 IU/ml benzyl penicillin, 50 μg/ml streptomycin sulphate, 50 μg/ml kanamycin monosulphstep and 10 μg/ml sodium ampicillin). Four hours after plating, serum-containing medium was removed and fresh serum-free medium was added to the cultures. Culture medium was refreshed daily. […]
Total cell extracts were prepared as described previously (Papeleu et al. J Hepatol 39: 374-382, 2003) and proteins (25 or 50 μg per lane) were separated electrophoretically by SDS-PAGE and electroblotted onto nitrocellulose membranes (Amersham Pharmacia Biotech, Buckinghamshire, UK). […] Proteins were detected using the ECL detection system (Amersham Pharmacia Biotech, Buckinghamshire, UK) according to the manufacturer's recommendations.

Series [3] deals with ribosomal S6 subunit. The series is described as follows: Western blotting of S6 phosphorylation in synchronized hepatocytes. The series is classed as cell-based, rat. To be noted: 50 μM. As for the experimental part: Total cell extracts were prepared as described previously (Papeleu et al. J Hepatol 39: 374-382, 2003) and proteins (25 or 50 μg per lane) were separated electrophoretically by SDS-PAGE and electroblotted onto nitrocellulose membranes (Amersham Pharmacia Biotech, Buckinghamshire, UK). Equal sample loading was verified by immersion of the membranes in Ponceau S. Unspecific binding sites were blocked with 5% skim milk/Tris-buffered saline. Incubations with primary antibodies were performed overnight at 4° C. under gentle shaking. Proteins were detected using the ECL detection system (Amersham Pharmacia Biotech, Buckinghamshire, UK) according to the manufacturer's recommendations.
Early cell cycle events can be triggered by distinct signalling pathways, activated by EGF, namely: the MEK/ERK, the mTOR/p70S6k, and the Pak1 pathways. Eventually, they all converge on cyclin D1 and play thus an essential role in the regulation of this critical cell cycle protein. […] This was done by culturing the hepatocytes in the absence of EGF for 48 hours, consequently stimulating them with EGF and exposing them to 50 μM 4-Me2N-BAVAH for 0.5, 1 and 3 hours before harvesting. Shortly after stimulation of synchronized primary hepatocytes with EGF, a rapid and sustained phosphorylation of ERK1/2 was observed (FIG. 20A). […]

Series [4] concerns histone H4. In words: Histone H4 acetylation (in vitro HDAC inhibiting activity) in primary rat hepatocytes, Western blot. It counts as cell-based. To be noted: 48 hours. From the text: Male outbred Sprague-Dawley rats (200-300 g, Iffa Credo, Brussels, Belgium) were kept under controlled environmental conditions (12-hr light-dark cycle) and fed a standard diet (Animafabo A04, water ad libitum). Hepatocytes were isolated by a two-step collagenase perfusion as described (De Smet et al. In ‘Methods in Molecular Biology, Vol. 107: Cytochrome P450 Protocols’, Philips I R and Shephard E A, eds., pp 295-301, Humana Press, Totowa, 1998). Cell liability was >90% as determined by trypan blue exclusion. Cells (0.4×10^5 cells/cm^2) were plated in MEM/M199 (3:1), containing BSA (1 mg/ml), bovine insulin (10 μg/ml), L-glutamine (2 mM), FBS (10% v/v) and antibiotics (7.3 IU/ml benzyl penicillin, 50 μg/ml streptomycin sulphate, 50 μg/ml kanamycin monosulphstep and 10 μg/ml sodium ampicillin). Four hours after plating, serum-containing medium was removed and fresh serum-free medium was added to the cultures. Culture medium was refreshed daily. EGF (50 ng/ml) was added 4 hours after plating. A 100 mM stock solution of 4-Me2N-BAVAH was prepared in ethanol.
Hepatocytes were treated for 48 hours with 4-Me2N-BAVAH (10, 25 or 50 μM) Histones were acid-extracted as described previously (Coussens et al. J Biol Chem 254:1716-1723, 1979). Extracted histones (20 μg per lane) were electrophoresed on a 15% SDS-PAGE as described (Waterborg J et al. Anal Biochem 162: 430-434, 1987) and blotted. Equal sample loading was confirmed with Ponceau S. Membranes were incubated at room temperature with primary antibody for 1 hour under gentle shaking and visualized by ECL. Band intensities were quantified by laser densitometry.

Each structure is given as a SMILES string.

Turning to `CC(C=CC(=O)NO)=CC(C)C(=O)c1ccc(N(C)C)cc1` (stereo not shown) [TSA], in series [1], the “expression of Cx26” value is “decreases the expression” and the “localization of Cx26” value is listed as “perinuclear localization”.
In the case of `CN(C)c1ccc(C(=O)NCCCCC(=O)NO)cc1` [4-Me2N-BAVAH, 5-(4-dimethylaminobenzoyl)-aminovaleric acid hydroxamide], the “cellular levels of Pak1” value in series [2] is listed as “decrease in the cellular levels of Pak1”. Also, the S6 phosphorylation entry in series [3] is “only a minor increase”. For the same compound, the “histone H4 acetylation, fold induction” value in series [4] (10 μM) came out at 2.35±0.05 fold induction; in series [4] (25 μM), 3.56±0.23 fold induction. Besides, in series [4] (50 μM), the “histone H4 hyperacetylation, fold induction” value stood at 6.91±0.63 fold induction.

(Values after patent US20090130064A1, “DIFFERENTIATION OF STEM CELLS AND STABILIZATION OF PHENOTYPICAL PROPERTIES OF PRIMARY CELLS” (priority 2004, published 2009).)
